Where two headings read alike, the source gives them in different places.
Assays:
[1] = test system: Mitochondrial Membrane Potential; experiment: cells; conditions: for EC10, linear / logEC10: MMP bioassay, dosing range all; for EC10, linear: linear model; for logEC10: log-logistic model; for Specificity ratio (SRbaseline) SRMMP: against baseline cytotoxicity; for Relative effect potency REPMMP: relative to BPA
Source text: All bioassay media components and the ERα-UAS-bla GripTite and PPARγ-UAS-bla cells were obtained from Thermo Fisher Scientific (Waltham, MA, USA). AREc32 reporter gene cells based on MCF7 were provided by C. Roland Wolf (Cancer Research UK); AhR CALUX cells (H4L7.5c2 derived from H4IIe) were provided by Michael Denison (UC Davis, USA); and SH-SY5Y cells were purchased from Sigma-Aldrich.
(§1) Cell culture conditions and bioassay protocols including response detection are provided in Text S2.1–2.4 and Table S3. − Cell viability was determined from cell confluency using an IncuCyte S3 Live-Cell Analysis System (Sartorius AG, Essen, Germany) before and after exposure, except for SH-SY5Y cells (live–dead staining with Nuclear Green LcS1 and propidium iodide, Abcam, UK). For metabolic activation experiments, cell viability was assessed using the ToxBLAzer DualScreen Kit (Thermo Fisher Scientific) to capture the remaining toxicity in ERα-UAS-bla GripTite after treatment with the aCYP catalyst (details in Text S2.4).
For ARE, the concentration that triggered an induction ratio of 1.5 (ECIR1.5) was used as the benchmark value, as detailed in Text S2.5. IC10 values also served as a threshold for data analysis in all assays; only concentrations below IC10 were considered when deriving EC10 or ECIR1.5. […]
S2: Cell culture and bioassays
S2.1: Cell Culturing Conditions
All suppliers and sources are given in detail in SI-Excel S3. The bioassay media for the different assays were prepared as follows: Assay medium for ER alpha-UAS-bla GripTite (ERα) and […]
2% charcoal-stripped FBS, and 100 U/mL penicillin-streptomycin. MitoOxTox and AhR assay medium was comprised of 90% DMEM with GlutaMAX, supplemented with 10% FBS, and 100 U/mL penicillin-streptomycin. […]
S2.2: Cell Seeding and Incubation. For all bioassays, cell suspensions in the respective assay medium were dispensed into each well of 384-well plates using a MultiFlo Dispenser (Biotek, (now Agilent), Winooski, VT, U.S.). After seeding, the plates were incubated at 37° C and 5% CO₂ for […]. The final cell densities and plate types were as follows: Black poly-D-lysine […]
6500 cells/well, ERα: 5000 cells/well. White 384-well plates with a clear bottom (Product No.
(§2) NYC, U.S.) for AhR: 3250 cells/well. Black Collagen I coated plates were used (Product No.
(§3) S2.3: Chemical Dosing and Assay Analysis Procedures. The dosing procedure and high-throughput assay workflow have been described in detail before. 9 The dosing concentrations […]
Stock solutions were then either

SH-SY5Y cells = conditions: for IC10, SH-S5Y5, NOI: cytotoxicity, NOI assay cells
Method: as §1, with “S2.4). […]” for “S2.4).”
We measured the cytotoxicity of BPA and its alternatives in HEK293H (PPARγ), HEK293T (ERα), H4IIe (AhR CALUX), MCF7 (ARE/MMP), and differentiated SH-SY5Y cells (Table S6). […]
medium, supplemented with 2% B-27 Supplement and 2 mM GlutaMAX Supplement. SH - SY5Y cells were differentiated with 10 µM all-trans retinoic acid prior to the assay.
S2.2: Cell Seeding and Incubation. For all bioassays, cell suspensions in the respective assay medium were dispensed into each well of 384-well plates using a MultiFlo Dispenser (Biotek, (now Agilent), Winooski, VT, U.S.). After seeding, the plates were incubated at 37° C and 5% […]
as §2, §3
Stock solutions were then either added directly to the respective cell culture medium or evaporated under nitrogen, followed by replenishment with fresh medium. The final solvent content in each well was kept below 1% for methanol, 0% for acetonitrile.
Dosing plates were prepared as 11 -step serial dilutions using a Hamilton Microlab Star robotic system (Hamilton, Bonaduz, Switzerland), and chemicals were dosed in duplicates by transferring 10 μL twice from the dosing plates to the cell plates . After quantifying cell confluency as described in S2. 4., the exposed cells were incubated at 37° C and 5% CO₂ for an additional 24 h. All chemicals were tested in all assays with at least three independent […]
S2.4: Cell Viability Measurement s and bioanalytical protocols . The confluency as a measure of cell viability was determined with an IncuCyte S3 Live -Cell Analysis System (Sartorius AG, Essen, Germany). With this method the confluency of cells in a microscopy image are normalized to control wells without cells and compared before and after 24 hours of exposure.
This method has been described previously 13. Cell viability of SH-SY5Y cells was measured […]
propidium iodide (PI, Abcam, Cambridge, U.K.).14 Nuclear Green LCS1 is a membrane-permeable dye that stains the nuclei of all cells, whereas PI only enters cells with compromised membrane integrity (non-viable cells). After staining, live cells show green nuclei without red fluorescence, while dead cells display both green and red nuclear fluorescence due to PI […]
intercalation. […]

[2] = Arec32, read-out: EC10, linear transformed
[3] = NOI bioassay cytotoxicity, dosing range all
[4] = NOI bioassay cytotoxicity, dosing range all, linear model
[5] = NOI bioassay cytotoxicity, dosing range all, log-logistic model
[6] = Arec32, read-out: EC10, MMP (M)

## Cc1cc(Cc2cc(C)c(O)c(C)c2)cc(C)c1O [TMBPF, Bis(3,5-dimethyl-4-hydroxyphenyl)methane]
[1]; [2]
  EC10: 6.68e-05 M
[1]
  EC10, linear: no effect
  logEC10: no effect
SH-SY5Y cells; [3]
  IC10, linear transformed: 1.27E-05
SH-SY5Y cells; [4]
  IC10, linear: 1.62E-05
SH-SY5Y cells; [5]
  logIC10: -4.90
SH-SY5Y cells; against baseline cytotoxicity
  Toxic ratio (TR) TRNOI: 0.73
SH-SY5Y cells
  IC10, SH-S5Y5, NOI: 12.7 µM

## O=S(=O)(c1ccc(O)cc1)c1ccccc1O [2,4-BPS, 2,4'-Dihydroxydiphenyl sulfone]
[1]; Arec32, read-out: EC10, MMP
  EC10: 5.9e-05 M
[1]; [6]
  EC10: 5.9e-05 M
[1]; Arec32, read-out: EC10, linear
  EC10: 4.26e-05 M
[1]; [2]
  EC10: 5.93e-05 M
[1]; Arec32, read-out: logEC10
  EC10: 5.89e-05 M
[1]
  Specificity ratio (SRbaseline) SRMMP: 11.47
  Relative effect potency REPMMP: 0.47
[1]; human, 24 h
  Specificity ratio (SRcytotoxicity) SRMMP: 14.98
SH-SY5Y cells; human, 24 h
  Toxic ratio (TR) TRNOI: 1.29
  logIC10: -3.31

## Cc1ccc(S(=O)(=O)NC(=O)Nc2cccc(OS(=O)(=O)c3ccc(C)cc3)c2)cc1 [Pergafast, N-(p-toluenesulfonyl)-N'-(3-(p-toluenesulfonyloxy)phenyl)urea]
[1]
  EC10, linear: no effect
  logEC10: no effect
[1]; input of the ToxPi score, values up to 1.00
  log(1/EC10) MMP: 0.92
SH-SY5Y cells; [4]
  IC10, linear: 4.94E-05
SH-SY5Y cells; [5]
  logIC10: no cytotoxicity
SH-SY5Y cells; against baseline cytotoxicity
  Toxic ratio (TR) TRNOI: 2.23
SH-SY5Y cells
  IC10, SH-S5Y5, NOI: 49.4 µM

## CC1(C)C(O)C(C)(C)C1O (racemic) [r-TMCD, 2,2,4,4-Tetramethyl-1,3-cyclobutanediol (racemate)]
[1]
  EC10, linear: no effect
  logEC10: no effect
SH-SY5Y cells; [4]
  IC10, linear: no cytotoxicity
SH-SY5Y cells; [5]
  logIC10: no cytotoxicity

## CC(C)CC(C)(c1ccc(O)cc1)c1ccc(O)cc1 [BP-MIBK, 4,4'-(1,3-Dimethylbutylidene)diphenol]
[1]; Arec32, read-out: EC10, MMP
  EC10: 1.14e-05 M
[1]; [6]
  EC10: 1.14e-05 M
[1]; Arec32, read-out: EC10, linear
  EC10: 7.7e-06 M
[1]; [2]
  EC10: 1.12e-05 M
[1]; Arec32, read-out: logEC10
  EC10: 1.15e-05 M
SH-SY5Y cells
  IC10, linear: no cytotoxicity
SH-SY5Y cells; human, 24 h
  logIC10: -4.10

## CC(C)(c1ccc(OCC2CO2)cc1)c1ccc(OCC2CO2)cc1 (stereo not shown) [BADGE, Bisphenol A diglycidyl ether]
[1]; [2]
  EC10: 9.1e-05 M
[1]
  EC10, linear: no effect
  logEC10: no effect
SH-SY5Y cells; [3]
  IC10, linear transformed: 5.73E-05
SH-SY5Y cells; [4]
  IC10, linear: 5.39E-05
SH-SY5Y cells; [5]
  logIC10: -4.24
SH-SY5Y cells; against baseline cytotoxicity
  Toxic ratio (TR) TRNOI: 0.32
SH-SY5Y cells
  IC10, SH-S5Y5, NOI: 57.3 µM

## CC(C)c1cc(C(C)(C)c2ccc(O)c(C(C)C)c2)ccc1O [BPG, 2,2-Bis(4-hydroxy-3-isopropylphenyl)propane]
[1]; Arec32, read-out: EC10, MMP
  EC10: 3.12e-06 M
[1]; [6]
  EC10: 3.12e-06 M
[1]; Arec32, read-out: EC10, linear
  EC10: 2.65e-06 M
[1]; [2]
  EC10: 3.08e-06 M
[1]; Arec32, read-out: logEC10
  EC10: 3.09e-06 M
[1]
  Specificity ratio (SRbaseline) SRMMP: 1.70
  Relative effect potency REPMMP: 8.97
[1]; against experimental cytotoxicity
  Specificity ratio (SRcytotoxicity) SRMMP: 2.79
SH-SY5Y cells; [3]
  IC10, linear transformed: 3.61E-05
SH-SY5Y cells; [4]
  IC10, linear: no cytotoxicity
SH-SY5Y cells; [5]
  logIC10: -4.44
SH-SY5Y cells; against baseline cytotoxicity
  Toxic ratio (TR) TRNOI: 0.08
SH-SY5Y cells
  IC10, SH-S5Y5, NOI: 36.1 µM

## CC1(C)[C@H](O)C(C)(C)[C@H]1O [t-TMCD, trans-2,2,4,4-Tetramethyl-1,3-cyclobutanediol]
[1]; Arec32, read-out: EC10, MMP
  EC10: 0.0185 M
[1]; [6]
  EC10: 0.0185 M
[1]
  Specificity ratio (SRbaseline) SRMMP: 0.0554
  Relative effect potency REPMMP: 0.00152
